ChEMBL document CHEMBL1201862, “PubChem BioAssay data set” (2004)
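Following 48 hours of exposure in 96-well plates, responses at five concentrations were used to interpolate endpoints linearly. GI50: concentration for 50% inhibition of growth.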 The source made the active and inactive calls. Cut-off read from the data, not from the text of the source: active = GI50 up to about 1.1 µM and inactive = higher.

Columns and labels:
Test in all cases: inhibition of tumour cell growth, NCI panel, 48 h
[1] = system: A498
[2] = system: EKVX
[3] = system: HCT-116
[4] = system: HCT-15
[5] = system: HOP-62
[6] = system: HT-29
[7] = system: K562
[8] = system: LOX IMVI
[9] = system: MCF7
[10] = system: MOLT-4
[11] = system: OVCAR-5
[12] = system: OVCAR-8
[13] = system: RPMI-8226
[14] = system: SF-295
[15] = system: SK-OV-3
[16] = system: SNB-19
[17] = system: UACC-257
[18] = system: M14
[19] = system: TK-10
[20] = system: ACHN

SMILES | GI50 [1] | GI50 [2] | GI50 [3] | GI50 [4] [µM] | GI50 [5] | GI50 [6] | GI50 [7] | GI50 [8] | GI50 [9] | GI50 [10] | GI50 [11] | GI50 [12] | GI50 [13] | GI50 [14] | GI50 [15] | GI50 [16] | GI50 [17] | GI50 [18] | GI50 [19] | GI50 [20]
Cc1ccc(N(O)C(C)(C)C)cc1 | > 100 µM (inactive) | > 100 µM (inactive) | > 100 µM (inactive) | > 100 | > 100 µM (inactive) | > 100 µM (inactive) | > 100 µM (inactive) | > 100 µM (inactive) | > 100 µM (inactive) | > 100 µM (inactive) | > 100 µM (inactive) | > 100 µM (inactive) | > 100 µM (inactive) | > 100 µM (inactive) | > 100 µM (inactive) | > 100 µM (inactive) | > 100 µM (inactive) |  |  | 
Cc1ccc(C(=O)C2CC3(CCC2(O)c2ccc(C)cc2)CC(=O)Nc2ccccc2C3=O)cc1 (stereo not drawn) | > 100 µM (inactive) | > 100 µM (inactive) | 62.7 µM (inactive) | > 100 | 99.3 µM (inactive) | > 100 µM (inactive) |  | > 100 µM (inactive) | 7.6 µM (inactive) | 4.91 µM (inactive) | > 100 µM (inactive) | > 100 µM (inactive) |  | 28.4 µM (inactive) | > 100 µM (inactive) | 51.6 µM (inactive) | > 100 µM (inactive) | 46.5 µM (inactive) | > 100 µM (inactive) | 
COc1nc(-c2cn(S(=O)(=O)c3ccc(C)cc3)c3ccc(Br)cc23)cc(C(F)(F)F)c1C#N | 52.5 µM (inactive) | 40 µM (inactive) |  | 41.4 |  | > 100 µM (inactive) | 27.8 µM (inactive) | 23.7 µM (inactive) | 50.4 µM (inactive) | 31.3 µM (inactive) | 61.5 µM (inactive) | 25.6 µM (inactive) | 14.9 µM (inactive) | 97.3 µM (inactive) | 21 µM (inactive) | 25.9 µM (inactive) | 53.1 µM (inactive) |  |  | 29.1 µM (inactive)
O=[N+]([O-])c1cc2ncc(-c3ccccc3)c(O)c2cc1/C(Cl)=C/c1ccccc1 | 16.1 µM (inactive) | 5.57 µM (inactive) | 6.89 µM (inactive) | 11.1 | 16.3 µM (inactive) | 13.4 µM (inactive) | 5.86 µM (inactive) | 6.93 µM (inactive) | 5.02 µM (inactive) | 6.85 µM (inactive) | > 44.7 µM (inactive) | 5.6 µM (inactive) | 2.39 µM (inactive) | 6.65 µM (inactive) | 27.1 µM (inactive) | 16.3 µM (inactive) | 24.3 µM (inactive) |  |  | 
S=C(N/N=C(/c1ccccc1)c1ccccn1)Nc1cccc(Cl)c1 | 2.24 µM (inactive) | 0.0513 µM (active) | < 0.0189 µM (active) |  | 1.27 µM (inactive) |  |  |  | 0.091 µM (active) | < 0.0297 µM (active) | 0.984 µM (active) | 0.0454 µM (active) | < 0.0385 µM (active) | 0.422 µM (active) | 0.215 µM (active) | 3.01 µM (inactive) | < 0.0475 µM (active) | 0.0596 µM (active) | 0.714 µM (active) | 0.225 µM (active)
Cc1[nH]c(=O)nc(S)c1C(=O)NC1C2CCCCC2NC2CCCCC21 (stereo not drawn) | 18.3 µM (inactive) |  | 15.1 µM (inactive) | 10.9 | 17.3 µM (inactive) | 21.4 µM (inactive) | 4.57 µM (inactive) | 27 µM (inactive) | 17 µM (inactive) | 14.3 µM (inactive) | 18.4 µM (inactive) | 15.1 µM (inactive) | 26.4 µM (inactive) | 17.2 µM (inactive) | > 10 µM (inactive) | 15.6 µM (inactive) | 16.3 µM (inactive) | 14.2 µM (inactive) | 16.5 µM (inactive) | 
Nc1c(Br)cc2c(c1Br)Cc1cc(Br)ccc1-2 | 0.968 µM (active) |  | > 100 µM (inactive) | > 100 |  | > 100 µM (inactive) | > 100 µM (inactive) | > 100 µM (inactive) | > 100 µM (inactive) | > 100 µM (inactive) |  | > 100 µM (inactive) |  | > 100 µM (inactive) | > 100 µM (inactive) | > 100 µM (inactive) | > 100 µM (inactive) | > 100 µM (inactive) | > 100 µM (inactive) | > 100 µM (inactive)
CC(C)(Br)C(Br)CCC(C)(Br)C(Br)CO (stereo not drawn) | > 10 µM (inactive) | > 10 µM (inactive) | > 10 µM (inactive) | > 10 | > 10 µM (inactive) | > 10 µM (inactive) | > 10 µM (inactive) |  | > 10 µM (inactive) | > 10 µM (inactive) |  | > 10 µM (inactive) | > 10 µM (inactive) | > 10 µM (inactive) | > 10 µM (inactive) | > 10 µM (inactive) | > 10 µM (inactive) | > 10 µM (inactive) |  | > 10 µM (inactive)
O=C(N/N=C\C(F)(F)F)c1ccncc1 | 46.9 µM (inactive) |  |  | 26.9 | 24.7 µM (inactive) | 7.59 µM (inactive) | 7.62 µM (inactive) | > 100 µM (inactive) | 86.3 µM (inactive) | 21.4 µM (inactive) | > 100 µM (inactive) | 48.2 µM (inactive) | > 100 µM (inactive) | 30.5 µM (inactive) | 31.6 µM (inactive) | 71.9 µM (inactive) | 49.3 µM (inactive) | 26 µM (inactive) | 22.8 µM (inactive) | 
O1C2C1C1OC1C1OC1C1OC21 (stereo not drawn) | > 100 µM (inactive) | > 100 µM (inactive) | > 100 µM (inactive) | > 100 | > 100 µM (inactive) | > 100 µM (inactive) | > 100 µM (inactive) | > 100 µM (inactive) | > 100 µM (inactive) | > 100 µM (inactive) | > 100 µM (inactive) | > 100 µM (inactive) |  | > 100 µM (inactive) | > 100 µM (inactive) | > 100 µM (inactive) | > 100 µM (inactive) | > 100 µM (inactive) | > 100 µM (inactive) | > 100 µM (inactive)
N/N=C1/C2CN3CCN(C2)CC1(c1ccc([N+](=O)[O-])cc1)C3 | > 100 µM (inactive) | > 100 µM (inactive) | > 100 µM (inactive) |  | > 100 µM (inactive) | > 100 µM (inactive) | > 100 µM (inactive) | > 100 µM (inactive) | > 100 µM (inactive) | > 100 µM (inactive) | > 100 µM (inactive) | > 100 µM (inactive) | > 100 µM (inactive) | > 100 µM (inactive) |  | > 100 µM (inactive) | > 100 µM (inactive) |  | > 100 µM (inactive) | > 100 µM (inactive)
CCN(CC)c1ccc2cc(C(=O)Nc3ccc4[nH]c(C(=O)N5C[C@@H](CCl)c6c5cc(OC(=O)Nc5ccccc5)c5[nH]cc(C)c65)cc4c3)oc2c1 [CARZELESIN] | 0.00024 µM (active) | 0.000266 µM (active) | 152 µM (inactive) | 0.000676 | 0.000171 µM (active) | > 1000 µM (inactive) | 0.000556 µM (active) | 0.000128 µM (active) | 9.25e-05 µM (active) | 0.000343 µM (active) | 0.000601 µM (active) | 234 µM (inactive) | 0.000308 µM (active) |  | 0.00042 µM (active) | 294 µM (inactive) | 384 µM (inactive) |  |  | 
